Tests used:
[1] = In vivo delivery of radio-labeled myoglobin with Sunfish/co-lipid complexes
Method: The low molecular-weight protein myoglobin was chosen as the model protein, the molecular weight is 17.8 kDa and iso-electric point 7.3. To enable quantification of organ uptake of myoglobin, myoglobin was radio-labeled with ^125Iodine-tyramine-cellobiose that is retained within the cell in which it is internalized.
The complexation was performed by mixing 3.5 μg of myoglobin in Tricine buffer (pH 8.5) with 75 nmol liposomes consisting of Sunfish and co-lipid in a molar ratio of 1:1 in 5% glucose solution.
Study 2: For complexation, SF-30, in combination with cholesterol in a molar ratio of 1:1, was used. […]
Study 2: BALB/c mice were injected intravenously with ^125Iodine-tyramine-cellobiose-labeled myoglobin complexed with different PEGylated lipid formulations. The mice were sacrificed after 10, 30 or 120 minutes following injection and the body distribution of ^125Iodine was determined. […]
The organ uptake is expressed as the percentage of injected dose ^125Iodine (tyramine-cellobiose) radioactivity. […] The total percentage of radioactivity in the blood was determined by multiplying the percentage per milliliter blood by 0.073 times the body weight in grams, being the total blood volume of the mouse. To allow an accurate comparison, the ratio between radioactivity in total blood and reticuloendothelial system (RES=liver+spleen) was expressed. […]

MscL = MscL (Escherichia coli, UniProt P0A742, G22C); type: biochemical, E. coli; set-up: made in house; host or cells: E. coli PB104; conditions: for calcein release upon addition of MTS compound, versus MTSET: G22C in DOPC:DOPS liposomes, 2.5 mM MTSEA, 10 mM MTSES
Method: Results Overexpression and Purification of the MscL Channel Protein
Samples were prepared and calcein efflux was monitored as described elsewhere in Example 1.
300 μl of detergent-treated liposomes were gently mixed with 240 μl of 0.25 mg/ml purified MscL-mutant G22C in elution buffer containing 0.2% Triton X-100. The mixture was incubated at 60° C. for 45 minutes, followed by the addition of an equal volume (540 μl) of calcein-loading buffer, containing 200 mM calcein, 25 mM Tris, 1 mM EDTA, pH 8.0. After addition of 20 mg of Triton X-100-absorbing Bio-Beads SM-2, the mixture was gently agitated for one hour at room temperature. Subsequently, 80 mg Bio-Beads were added and incubated at 4° C. overnight under mild agitation. Samples were prepared for calcein efflux assay as described elsewhere.

[2] = Gelation experiment (gel formation in solvents); type: physicochemical
Method: To obtain a gel or to thicken the solvent, the compound is mixed with the required solvent or a mixture of solvents in an amount between 0.01 and 50 wt. %, based on the weight of the composition. Typically, the dissolution of the components will be performed by heating (in some cases it may be helpful to homogenize the components, e.g., vortex) them together at temperatures of 20° C. to 200° C., preferably 50° C. to 150° C. Cooling these hot solutions to a preferred temperature in the range of −20° C. to 100° C., preferably 4° C. to 100° C. affords the gel or thickened solvent. […] In an alternative embodiment, the gelling agent is first dissolved in a polar or apolar solvent followed by the addition of another solvent or solvent mixture, thereby causing gelation to take place.
It will be understood that the use of the present gelling agents or thickeners to prepare a gel or to thicken a composition is also encompassed by the invention. As is well-known, gelling behavior of compounds or compositions is highly unpredictable. […] Preferably, the gelling phenomenon is thermoreversible.
(§1) In a typical gelation experiment, a carefully weighed amount of the dithienylcyclopentene derivative under investigation and 1 ml of the solvent are placed in a test tube, which is sealed and then heated until the compound is dissolved. The solution is allowed to cool to room temperature. […] The gelation process could be followed by UV-vis and CD spectroscopy as depicted in FIG. 58. At low concentrations (0.35 mM), compound D is dissolved in toluene. […] Increasing the concentration to 1.8 mM causes gelation of the solvent, which is accompanied by a change of the UV-visible spectrum, together with the appearance of a strong CD signal at 323 nm (FIG. 58, panels (a) and (c)). Similar changes in the UV-vis and CD spectrum are observed upon gelation of the 1.8 mM solution of D in toluene by cooling to a temperature below the sol-gel phase transition (from here on, referred to as gel(o)). From a plot of the increase of the CD signal versus the temperature, the sol-gel phase transition temperature of gel(o) was determined to be 29° C. for a 1.8 mM solution of D in toluene.

[3] = Sol-gel phase transition temperature and photo-switching by CD spectroscopy; type: physicochemical
Method: as §1
In a typical photo-switching experiment, a solution (1.8 mM) of Compound D in toluene was prepared by cooling from 70° C. to the desired temperature (typically between 30° C. and 60° C., i.e., above the gel-sol phase transition temperature of the open form of D) in a cuvette of 1 mm path length. This solution was then irradiated at λ1=313 nm to convert the ring-open form of Compound D to the ring-closed form. By using a 150 W Xe lamp and a 313 nm bandpass filter, the photo-stationary state (PSS) was reached, typically within 10 minutes, which consist of 60 mol % of the closed form and 40 mol % of the open form.

[4] = Gelation in the presence of surfactants and polymeric micelles; type: physicochemical; set-up: key: G = gel; C = crystalline; G^a: ^a= not stable
[5] = as above; type: physicochemical; set-up: key: g = gel; i = insoluble; p = precipitate; sol = soluble
[6] = Urinary excretion of IOT after subcutaneous injection; type: in vivo, rat; conditions: conscious rats
Method: DOPC/DOPS (90:10, mol/mol) and DOPC/DOPE liposomes (70:30, mol/mol) liposomes were tested.
Male Wistar rats remained conscious throughout the study. To increase the time-resolution, the diuretic furosemide (10 mg/kg dose s.c) was given in the morning, seven hours before administration of the sample. Urine was collected automatically with a one hour resolution. The concentration of IOT in the urine was measured by HPLC.

[7] = Subcutaneous pH reduction by MES buffer; type: in vivo, rat; conditions: pH 6.1, 0.5 ml s.c.
Method: Male Wistar rats remained conscious throughout the study. The subcutaneous pH was constantly recorded using a micro-glass electrode. After stabilization of the pH, 0.5 ml MES buffer (pH 6.1) was injected approximately 3 mm from the pH electrode. The effect of different molarities (50, 100 and 250 mM) of the MES buffer on the time-course of pH reduction was tested.

α-chymotrypsin = α-chymotrypsin (Bos taurus, UniProt P00766); assay: Cleavage of prodrug-gelling agent conjugate by α-chymotrypsin in gel and solution; type: biochemical
Method: The prodrug has been mixed with several gelators (neutral: C3-Am-Meth-Am-CH2CH2OCH2CH2OH as well as ionizable: DBC and C3-Am-Meth-OH) and stabile gels were obtained (0.25 wt % of the prodrug and 0.5 wt % of the gelator). […] This difference could be observed with the naked eye: after 20 minutes, the solution containing the prodrug turned bright yellow (due to the release of nitroaniline, whereas the gel containing the prodrug turned slightly yellow only after 20 hours.

[8] = Urinary excretion of MAG3 after subcutaneous or intravenous injection; conditions: free compound
Method: The effect of drug formulation on the rate of drug release in vivo was tested in the rat by external counting of radioactivity.
DOPC/DOPS (90:10, mol/mol) liposomes with or without the MscL-mutant G22C were used (protein-to-lipid ratio of 1:20, wt/wt).
Encapsulation of MAG3 in liposomes was performed by freezing/thawing three times followed by extrusion through a 400 nm filter. The free fraction of the compound was removed by G50 Sephadex column separation.
The normal liposomes were loaded with MAG3 in 0.9% NaCl and eluted on the G50 column with 25 mM HEPES pH 8, 150 mM NaCl.
Male Wistar rats were anaesthetized using iso-flurane O2/NO throughout the study. Liposome-encapsulated MAG3 in a 0.5 ml volume was injected subcutaneously (in the neck) and accumulation of radioactivity in the urinary bladder constantly monitored by external counting using a gamma-camera (window: 140 keV, 250 keV width, one minute time resolution). At the end of the study (after 40 minutes), a ten times higher dose of free MAG3 was administered subcutaneously or intravenously to measure the urinary excretion rates of those formulations.

[9] = tested on: pB104 strain (MscL null E. coli); assay: MTSET shock assay on agar plates with IPTG; type: cell-based; set-up: Growth −MTSET-shock: key to the marks not given beside the values
Method: The constructs of the G20C^Ll, V21C^Ll and G22C^Ec MscL-6His mutants were constructed using standard molecular biology techniques. The mutants were tested in pB104 strain (MscL null E. coli) by a MTSET shock assay on agar plates with IPTG (A. F. Batiza, et al., 2002, PNAS, 99:5643-5648).

MscL-mutant G22C = MscL-mutant G22C (Escherichia coli, UniProt P0A742, G22C); conditions: DOPC:DOPS (9:1) liposomes, 1 mM MTSET
Method: DOPC:DOPS (9:1 mol/mol) liposomes containing the G22C MscL were prepared as described previously. […] The labeled insulin was encapsulated by three freeze-thaw cycles, followed by extrusion through a 400 nm polycarbonate membrane.
Samples were taken at different time points and triton was added as a control for maximum fluorescence (100%). Samples were filtered over a 450 nm Cellulose Nitrate filter (Schleicher & Schuell BA85). The filtrate of 2 ml was retained and the fluorescence of 200 μl of each filtrate was monitored in a f1600 platereader (Bio-Tek). All experiments were performed in triplo.

[10] = DOPC:DOPS (90:10) liposomes, 1 mM MTSET

1-(polyethyleneglycol5000-ω-methylether)-4-(10′-cis-nonadecenyl)pyridinium Bromide [SF-79]
blood/RES ratio ([1]; 30 minutes after administration, complex containing 20% SF-79): one
circulation time / radioactivity in the blood ([1]; 120 minutes after injection, PEGylated complexes): the highest amount of radioactivity in the blood

2-aminoethyl methanethiosulfonate [MTSEA, reference compound]
calcein release upon addition of MTS compound, versus MTSET (MscL): the kinetics of release are significantly slower

Cc1sc(C(=O)N[C@H](C)c2ccccc2)cc1C1=C(c2cc(C(=O)N[C@H](C)c3ccccc3)sc2C)CCC1 [Compound D, 1,2-Bis(2′-methyl-5′-{(((R)-1-phenylethyl)amino)carbonyl}thien-3′-yl)cyclopentene]
solvents gelated [2]: cyclohexane, 1-phenyloctane, toluene, n-butylether, benzene, tetralin
sol-gel phase transition temperature of gel(c,I) ([3]; 1.8 mM in toluene, after irradiation at 313 nm (PSS)): 62 °C
sol-gel phase transition temperature of gel(o) ([3]; 1.8 mM in toluene, open form): 29 °C
increase of thermal stability compared to gel(o) ([3]; gel(c,I)): more than 30 °C

O=C(N[C@@H](CSSC[C@H](NC(=O)c1ccccc1)C(=O)O)C(=O)O)c1ccccc1 [DBC, dibenzoyl-L-cystine, reference compound]
response of gel to reducing agent (1 wt % gel, tris-(2-carboxy ethyl)phosphine): gel-to-sol transition
gelation by pH decrease through D-gluconic acid formation (D-glucose, glucose oxidase, catalase, NaHCO3, after three days): completely gelified
Gelation properties ([4]; CTAB < CMC, * pH reversible gelation): G
Gelation properties ([4]; CTAB < CMC, ** pH reversible then thermoreversible gelation): G
Gelation properties ([4]; CTAB > CMC, * pH reversible gelation): G
Gelation properties ([4]; CTAB > CMC, ** pH reversible then thermoreversible gelation): G
Gelation properties ([4]; Lactose der. < CMC, * pH reversible gelation): G
Gelation properties ([4]; Lactose der. < CMC, ** pH reversible then thermoreversible gelation): G
Gelation properties ([4]; Lactose der. > CMC, * pH reversible gelation): G
Gelation properties ([4]; Lactose der. > CMC, ** pH reversible then thermoreversible gelation): G
Gelation properties ([4]; Nonionic (Lactose der.) < CMC): G
Gelation properties ([4]; Nonionic (Lactose der.) > CMC): G
Gelation properties ([4]; Pluronic P 105, 100 mg · ml^−1): g^a
Gelation properties ([4]; SDS < CMC, * pH reversible gelation): G
Gelation properties ([4]; SDS < CMC, ** pH reversible then thermoreversible gelation): G
Gelation properties ([4]; SDS > CMC, * pH reversible gelation): G
Gelation properties ([4]; SDS > CMC, ** pH reversible then thermoreversible gelation): G
Gelation properties ([4]; anionic (SDS) < CMC): G
Gelation properties ([4]; anionic (SDS) > CMC): G
Gelation properties ([4]; cationic (CTAB) < CMC): G
Gelation properties ([4]; cationic (CTAB) > CMC): C
Gelation properties ([5]; Pluronic P 105, 5 mg · ml^−1): g
Gelation properties ([5]; Pluronic P 105, 5 mg · ml^−1, * pH reversible gelation): g
Gelation properties ([5]; Pluronic P 105, 5 mg · ml^−1, ** pH reversible then thermoreversible gelation): g
Gelation properties ([5]; Pluronic P 105, 100 mg · ml^−1, * pH reversible gelation): g
Gelation properties ([5]; Pluronic P 105, 100 mg · ml^−1, ** pH reversible then thermoreversible gelation): g

CNC(=O)c1c(I)c(NC(C)=O)c(I)c(C(=O)O)c1I [IOT, Iodo-thalamate]
urinary excretion of IOT after subcutaneous injection [6]: completed in the first couple of hours after injection

O=S(=O)(O)CCN1CCOCC1 [MES]
time for subcutaneous pH to return to pH 7.4 ([7]; 50 mM): ten
time for subcutaneous pH to return to pH 7.4 ([7]; 100 mM): ten
time pH remained below pH 6.5 ([7]; 250 mM): more than 30 minutes

CHex(AmEtOEtOH)2(AmPhe-pNA) [compound 16]
time until gel turned slightly yellow (release of nitroaniline) (α-chymotrypsin; 0.25 wt % prodrug in mixed gel, 0.5 wt % gelator): 20 h
time until solution turned bright yellow (release of nitroaniline) (α-chymotrypsin; prodrug in solution layered with α-chymotrypsin): 20 min

mertiatide [MAG3]
time to 50% urinary excretion ([8]; intravenous): 3 min
time to 50% urinary excretion ([8]; subcutaneous): > 12 min

sodium (2-sulfonatoethyl)methane thiosulfonate [MTSES, reference compound]
calcein release upon addition of MTS compound, versus MTSET (MscL): the kinetics of release are significantly slower

B1: G22C E. coli (protein, UniProt P0A742 1-136, looked up, variant G22C)
Large-conductance …: MSIIKEFREFAMRGNVVDLAVCVIIGAAFGKIVSSLVADIIMPPLGLLIGGIDFKQFAVTLRDAQGDIPAVVMHYGVFIQNVFDFLIVAFAIFMAIKLINKLNRKKEEPAAAPAPTKEEVLLTEIRDLLKEQNNRS
Growth after +MTSET-shock [9]: −
Growth −MTSET-shock [9]: ++++
FITC insulin efflux (MscL-mutant G22C): release of FITC insulin through MscL-mutant G22C upon activation with 1 mM MTSET
encapsulated calcein released (MscL; [10]): 80%
time in which half of the MscL-mediated efflux occurs (MscL; [10]): seven

Source: patent publication US20050272677A1, “Delivery of a substance to a pre-determined site” (priority 2002, published 2005)
